# Results as given in patent publication US20230024096A1, “BIFUNCTIONAL COMPOUNDS FOR THE TREATMENT OF CANCER” (Hoffmann-La Roche Inc., priority 2019, published 2023).
# Molecular target: T1, SMARCA2 (Homo sapiens, UniProt P51531)
# T1 construct: endogenous in cells; host or cells: HT1080 (CRISPR HiBiT knock-in clone, generated in house)
# Assay: SMARCA2 HiBiT degradation assay (cellular)
# Format: cell-based
# Settings: table head names A549; for DC50: 6 h incubation, HiBiT-tagged SMARCA2, luminescence read-out, read-out: HiBit A549 SMARCA2 IP (nM) 6 h; for Emax: A549, 6 h incubation, Emax = amount of residual protein remaining in the cell following compound treatment
# T1 sequence (P51531 whole entry): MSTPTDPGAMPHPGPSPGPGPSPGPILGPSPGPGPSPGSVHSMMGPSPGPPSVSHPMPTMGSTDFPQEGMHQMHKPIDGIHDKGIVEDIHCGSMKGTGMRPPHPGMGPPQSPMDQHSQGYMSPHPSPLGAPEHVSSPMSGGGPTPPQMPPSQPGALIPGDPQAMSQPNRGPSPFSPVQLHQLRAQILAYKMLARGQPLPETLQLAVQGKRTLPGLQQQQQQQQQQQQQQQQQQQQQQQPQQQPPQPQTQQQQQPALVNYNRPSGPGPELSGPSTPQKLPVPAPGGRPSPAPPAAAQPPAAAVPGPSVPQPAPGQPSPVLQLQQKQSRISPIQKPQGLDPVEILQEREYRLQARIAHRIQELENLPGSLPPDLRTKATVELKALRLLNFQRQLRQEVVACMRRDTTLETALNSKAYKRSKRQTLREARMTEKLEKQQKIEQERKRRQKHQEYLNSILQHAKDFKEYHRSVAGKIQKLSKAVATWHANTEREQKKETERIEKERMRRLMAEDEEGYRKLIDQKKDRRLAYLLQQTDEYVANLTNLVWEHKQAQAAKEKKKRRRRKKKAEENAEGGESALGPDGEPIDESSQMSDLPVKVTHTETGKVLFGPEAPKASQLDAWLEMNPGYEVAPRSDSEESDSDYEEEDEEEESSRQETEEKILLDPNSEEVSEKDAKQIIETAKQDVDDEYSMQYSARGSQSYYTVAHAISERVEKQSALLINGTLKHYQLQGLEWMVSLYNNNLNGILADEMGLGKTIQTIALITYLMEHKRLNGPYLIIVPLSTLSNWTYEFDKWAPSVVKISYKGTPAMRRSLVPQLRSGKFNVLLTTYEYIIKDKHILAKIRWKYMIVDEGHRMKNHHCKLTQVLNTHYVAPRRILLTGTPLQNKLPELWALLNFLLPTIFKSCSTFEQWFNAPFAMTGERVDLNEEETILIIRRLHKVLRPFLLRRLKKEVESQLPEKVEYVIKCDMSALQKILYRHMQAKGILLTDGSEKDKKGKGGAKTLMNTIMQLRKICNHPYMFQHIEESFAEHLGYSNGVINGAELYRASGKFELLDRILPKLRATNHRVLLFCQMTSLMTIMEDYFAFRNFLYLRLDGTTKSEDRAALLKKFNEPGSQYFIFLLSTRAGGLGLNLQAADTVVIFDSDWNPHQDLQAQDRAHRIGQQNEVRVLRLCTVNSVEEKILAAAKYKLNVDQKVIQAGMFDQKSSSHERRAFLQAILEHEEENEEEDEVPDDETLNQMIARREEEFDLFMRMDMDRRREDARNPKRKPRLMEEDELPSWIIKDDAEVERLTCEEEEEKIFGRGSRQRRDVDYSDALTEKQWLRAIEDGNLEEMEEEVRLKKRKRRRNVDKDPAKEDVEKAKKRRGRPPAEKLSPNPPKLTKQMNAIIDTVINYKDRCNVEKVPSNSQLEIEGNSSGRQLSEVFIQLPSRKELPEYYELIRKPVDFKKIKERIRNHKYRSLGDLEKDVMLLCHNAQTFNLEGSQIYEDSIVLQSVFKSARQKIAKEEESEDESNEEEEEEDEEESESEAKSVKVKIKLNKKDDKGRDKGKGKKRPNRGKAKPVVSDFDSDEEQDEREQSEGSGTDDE
SMILES,DC50 [nM],Emax [%]
"Nc1nnc(-c2ccccc2O)cc1N1CC2CCC(C1)N2c1cccc(OCCN2CCN(C(=O)N3CCN(c4ccc(OC5CCC(=O)NC5=O)cc4)CC3)CC2)c1 (racemic) [Example 51, rac-3-[4-[4-[4-[2-[3-[3-[3-amino-6-(2-hydroxyphenyl)pyridazin-4-yl]-3,8-diazabicyclo[3.2.1]octan-8-yl]phenoxy]ethyl]piperazine-1-carbonyl]piperazin-1-yl]phenoxy]piperidine-2,6-dione]",86,54
"Nc1nnc(-c2ccccc2O)cc1OC1CCCN(c2ccc(OCCN3CCN(C(=O)CCCCCCCCCCCCCCn4cc(CNc5cccc6c5C(=O)N(C5CCC(=O)NC5=O)C6=O)nn4)CC3)cc2)C1 (centres unmarked) [Example 24, 4-[[1-[15-[4-[2-[4-[3-[3-amino-6-(2-hydroxyphenyl)pyridazin-4-yl]oxy-1-piperidyl]phenoxy]ethyl]piperazin-1-yl]-15-oxo-pentadecyl]triazol-4-yl]methylamino]-2-(2,6-dioxo-3-piperidyl)isoindoline-1,3-dione]",256,56
"Nc1nnc(-c2ccccc2O)cc1N1CCC(C(=O)N2CC3(CN(C(=O)CCCN4CCC(c5ccc(OC6CCC(=O)NC6=O)cc5)CC4)C3)C2)(c2ccccc2)CC1 (centres unmarked) [Example 123, 3-(4-(1-(4-(6-(1-(3-amino-6-(2-hydroxyphenyl)pyridazin-4-yl)-4-phenylpiperidine-4-carbonyl)-2,6-diazaspiro[3.3]heptan-2-yl)-4-oxobutyl)piperidin-4-yl)phenoxy)piperidine-2,6-dione]",75,34
"Nc1nnc(-c2ccccc2O)cc1O[C@H]1CCCN(c2ccc(N3CCN(CCCCC(=O)N4CCC(Cn5cc(COc6cccc7c6C(=O)N(C6CCC(=O)NC6=O)C7=O)nn5)CC4)CC3)cc2)C1 (mixture of isomers) [Example 135, 2-(2,6-dioxo-3-piperidyl)-4-[[1-[[1-[5-[4-[4-[rac-(3S)-3-[3-amino-6-(2-hydroxyphenyl)pyridazin-4-yl]oxy-1-piperidyl]phenyl]piperazin-1-yl]pentanoyl]-4-piperidyl]methyl]triazol-4-yl]methoxy]isoindoline-1,3-dione]",382,35
"Nc1nnc(-c2ccccc2O)cc1N1CC2CCC(C1)N2c1cccc(OCCN2CCN(C(=O)N3CCN(c4ccc5c(c4)C(=O)N(C4CCC(=O)NC4=O)C5=O)CC3)CC2)c1 (racemic) [Example 49, rac-5-[4-[4-[2-[3-[3-[3-amino-6-(2-hydroxyphenyl)pyridazin-4-yl]-3,8-diazabicyclo[3.2.1]octan-8-yl]phenoxy]ethyl]piperazine-1-carbonyl]piperazin-1-yl]-2-(2,6-dioxo-3-piperidyl)isoindoline-1,3-dione]",4,39
"Nc1nnc(-c2ccccc2O)cc1OC1CCCN(c2ccc(N3CCN(CCCCCCCCCn4cc(C5(Nc6cccc7c6C(=O)N(C6CCC(=O)NC6=O)C7=O)CC5)nn4)CC3)cc2)C1 (centres unmarked) [Example 90, 4-[[1-[1-[9-[4-[4-[3-[3-amino-6-(2-hydroxyphenyl)pyridazin-4-yl]oxy-1-piperidyl]phenyl]piperazin-1-yl]nonyl]triazol-4-yl]cyclopropyl]amino]-2-(2,6-dioxo-3-piperidyl)isoindoline-1,3-dione]",103,37
"CC(Nc1cccc2c1C(=O)N(C1CCC(=O)NC1=O)C2=O)c1cn(CCCCCCCCCN2CCN(c3ccc(N4CCC[C@H](Oc5cc(-c6ccccc6O)nnc5N)C4)cc3)CC2)nn1 (mixture of isomers) [Example 201, 2-(2,6-dioxo-3-piperidyl)-4-[1-[1-[9-[4-[4-[rac-(3S)-3-[3-amino-6-(2-hydroxyphenyl)pyridazin-4-yl]oxy-1-piperidyl]phenyl]piperazin-1-yl]nonyl]triazol-4-yl]ethylamino]isoindoline-1,3-dione]",79,37
"Nc1nnc(-c2ccccc2O)cc1OC1CCCN(c2ccc(N3CCN(CCCCCCCCCn4cc(COc5cccc6c5C(=O)N(C5CCC(=O)NC5=O)C6=O)nn4)CC3)cc2)C1 (centres unmarked) [Example 65, 4-[[1-[9-[4-[4-[3-[3-amino-6-(2-hydroxyphenyl)pyridazin-4-yl]oxy-1-piperidyl]phenyl]piperazin-1-yl]nonyl]triazol-4-yl]methoxy]-2-(2,6-dioxo-3-piperidyl)isoindoline-1,3-dione]",115,31
"Nc1nnc(-c2ccccc2O)cc1OC1CCCN(c2ccc(N3CCN(CCCCCCCCCn4cc(CCNc5cccc6c5C(=O)N(C5CCC(=O)NC5=O)C6=O)nn4)CC3)cc2)C1 (centres unmarked) [Example 110, 4-[2-[1-[9-[4-[4-[3-[3-amino-6-(2-hydroxyphenyl)pyridazin-4-yl]oxy-1-piperidyl]phenyl]piperazin-1-yl]nonyl]triazol-4-yl]ethylamino]-2-(2,6-dioxo-3-piperidyl)isoindoline-1,3-dione]",276,52
"Nc1nnc(-c2ccccc2O)cc1N1CC2CCC(C1)N2c1cccc(OCCN2CCN(C(=O)CCC(=O)N3CCC(Oc4cccc5c4C(=O)N(C4CCC(=O)NC4=O)C5=O)CC3)CC2)c1 (racemic) [Example 9, rac-4-[[1-[4-[4-[2-[3-[3-[3-amino-6-(2-hydroxyphenyl)pyridazin-4-yl]-3,8-diazabicyclo[3.2.1]octan-8-yl]phenoxy]ethyl]piperazin-1-yl]-4-oxo-butanoyl]-4-piperidyl]oxy]-2-(2,6-dioxo-3-piperidyl)isoindoline-1,3-dione]",339,58

# Continued, values first:
DC50 [nM],Emax [%],SMILES
193,50,"Nc1nnc(-c2ccccc2O)cc1N1CCC(C(=O)N2CC3(CCN(C(=O)CCC4CCN(c5ccc6c(c5)C(=O)N(C5CCC(=O)NC5=O)C6=O)CC4)C3)C2)(c2ccccc2)CC1 (centres unmarked) [Example 188, 5-(4-(3-(2-(1-(3-amino-6-(2-hydroxyphenyl)pyridazin-4-yl)-4-phenylpiperidine-4-carbonyl)-2,6-diazaspiro[3.4]octan-6-yl)-3-oxopropyl)piperidin-1-yl)-2-(2,6-dioxopiperidin-3-yl)isoindoline-1,3-dione]"
494,65,"Nc1nnc(-c2ccccc2O)cc1N1CCC(NC(=O)CC2CCN(C(=O)C3CCN(c4ccc5c(c4)C(=O)N(C4CCC(=O)NC4=O)C5=O)CC3)CC2)(c2ccccc2)CC1 (centres unmarked) [Example 184, N-[1-[3-amino-6-(2-hydroxyphenyl)pyridazin-4-yl]-4-phenyl-4-piperidyl]-2-[1-[1-[2-(2,6-dioxo-3-piperidyl)-1,3-dioxo-isoindolin-5-yl]piperidine-4-carbonyl]-4-piperidyl]acetamide]"
126,41,"Nc1nnc(-c2ccccc2O)cc1N1CC(Oc2cccc(C(=O)N3CCN(C(=O)CCCCCCCCCNc4cccc5c4C(=O)N(C4CCC(=O)NC4=O)C5=O)CC3)c2)C1 (centres unmarked) [Example 146, 4-[[10-[4-[3-[1-[3-amino-6-(2-hydroxyphenyl)pyridazin-4-yl]azetidin-3-yl]oxybenzoyl]piperazin-1-yl]-10-oxo-decyl]amino]-2-(2,6-dioxo-3-piperidyl)isoindoline-1,3-dione]"
66,60,"Nc1nnc(-c2ccccc2O)cc1N1CCN(c2cccc(OCCN3CCN(C(=O)CCCCCCNc4cccc5c4C(=O)N(C4CCC(=O)NC4=O)C5=O)CC3)c2)C2(CC2)C1 (centres unmarked) [Example 5, 4-[[7-[4-[2-[3-[7-[3-amino-6-(2-hydroxyphenyl)pyridazin-4-yl]-4,7-diazaspiro[2.5]octan-4-yl]phenoxy]ethyl]piperazin-1-yl]-7-oxo-heptyl]amino]-2-(2,6-dioxo-3-piperidyl)isoindoline-1,3-dione]"
54,43,"Nc1nnc(-c2ccccc2O)cc1N1CCC(C(=O)N2CCC3(CC2)CN(C(=O)C2CCN(c4ccc5c(c4)C(=O)N(C4CCC(=O)NC4=O)C5=O)CC2)CCO3)(c2ccccc2)CC1 (centres unmarked) [Example 167, 5-(4-(9-(1-(3-amino-6-(2-hydroxyphenyl)pyridazin-4-yl)-4-phenylpiperidine-4-carbonyl)-1-oxa-4,9-diazaspiro[5.5]undecane-4-carbonyl)piperidin-1-yl)-2-(2,6-dioxopiperidin-3-yl)isoindoline-1,3-dione]"
550,53,"Nc1nnc(-c2ccccc2O)cc1N1CCC2(CC1)CN(C(=O)CCC1CCN(c3cccc4c3C(=O)N(C3CCC(=O)NC3=O)C4=O)CC1)CCO2 (centres unmarked) [Example 2, 4-[4-[3-[9-[3-amino-6-(2-hydroxyphenyl)pyridazin-4-yl]-1-oxa-4,9-diazaspiro[5.5]undecan-4-yl]-3-oxo-propyl]-1-piperidyl]-2-(2,6-dioxo-3-piperidyl)isoindoline-1,3-dione]"
92,43,"Nc1nnc(-c2ccccc2O)cc1N1CCN(c2ccccc2)C(C(=O)NCC2CCC(NC(=O)C3CCN(c4ccc5c(c4)C(=O)N(C4CCC(=O)NC4=O)C5=O)CC3)CC2)C1 (centres unmarked) [Example 85, 4-[3-amino-6-(2-hydroxyphenyl)pyridazin-4-yl]-N-[[4-[[1-[2-(2,6-dioxopiperidin-3-yl)-1,3-dioxoisoindol-5-yl]piperidine-4-carbonyl]amino]cyclohexyl]methyl]-1-phenylpiperazine-2-carboxamide]"
12,43,"Nc1nnc(-c2ccccc2O)cc1N1CCN(c2cccc(CN3CCN(C(=O)CC4CCN(c5ccc6c(c5)C(=O)N(C5CCC(=O)NC5=O)C6=O)CC4)CC3)c2)C2(CC2)C1 (centres unmarked) [Example 130, 5-(4-(2-(4-(3-(7-(3-amino-6-(2-hydroxyphenyl)pyridazin-4-yl)-4,7-diazaspiro[2.5]octan-4-yl)benzyl)piperazin-1-yl)-2-oxoethyl)piperidin-1-yl)-2-(2,6-dioxopiperidin-3-yl)isoindoline-1,3-dione]"
5,42,"Nc1nnc(-c2ccccc2O)cc1N1CC(Oc2cccc(N3CCN(C(=O)C4CCN(c5ccc6c(c5)C(=O)N(C5CCC(=O)NC5=O)C6=O)CC4)CC3)c2)C1 (racemic) [Example 152, rac-5-[4-[4-[3-[1-[3-amino-6-(2-hydroxyphenyl)pyridazin-4-yl]azetidin-3-yl]oxyphenyl]piperazine-1-carbonyl]-1-piperidyl]-2-(2,6-dioxo-3-piperidyl)isoindoline-1,3-dione]"
